Test results from ChEMBL document CHEMBL5137082, “Discovery of a Novel Vascular Disrupting Agent Inhibiting Tubulin Polymerization and HDACs with Potent Antitumor Effects” (J Med Chem, 2022).
Active and inactive are the calls of the source. The rule behind the calls is not given here.

Assays:
K562 = test: cells; format: functional, cell-based; conditions: Homo sapiens, K562, 72 h
Description: Antiproliferative activity against human K562 cells assessed as inhibition of cell growth measured after 72 hrs by MTT assay

MDA-MB-231 = test: Antiproliferative activity against human MDA-MB-231 cells assessed as inhibition of cell growth measured after 72 hrs by MTT assay; format: functional, cell-based; conditions: MDA-MB-231, 72 h
[1] = Antiproliferative activity against human HFL1 cells assessed as inhibition of cell growth measured after 72 hrs by MTT assay; format: toxicity, cell-based
[2] = molecular target: T1, Protein deacetylase HDAC6 (Homo sapiens, UniProt Q9UBN7); test: Inhibition of HDAC6 in human HeLa cells using BOC-K(Ac)-AMC as substrate measured after 30 mins by fluorescence based microtiter plate reader assay; format: cell-based
T1 sequence (Q9UBN7 whole entry): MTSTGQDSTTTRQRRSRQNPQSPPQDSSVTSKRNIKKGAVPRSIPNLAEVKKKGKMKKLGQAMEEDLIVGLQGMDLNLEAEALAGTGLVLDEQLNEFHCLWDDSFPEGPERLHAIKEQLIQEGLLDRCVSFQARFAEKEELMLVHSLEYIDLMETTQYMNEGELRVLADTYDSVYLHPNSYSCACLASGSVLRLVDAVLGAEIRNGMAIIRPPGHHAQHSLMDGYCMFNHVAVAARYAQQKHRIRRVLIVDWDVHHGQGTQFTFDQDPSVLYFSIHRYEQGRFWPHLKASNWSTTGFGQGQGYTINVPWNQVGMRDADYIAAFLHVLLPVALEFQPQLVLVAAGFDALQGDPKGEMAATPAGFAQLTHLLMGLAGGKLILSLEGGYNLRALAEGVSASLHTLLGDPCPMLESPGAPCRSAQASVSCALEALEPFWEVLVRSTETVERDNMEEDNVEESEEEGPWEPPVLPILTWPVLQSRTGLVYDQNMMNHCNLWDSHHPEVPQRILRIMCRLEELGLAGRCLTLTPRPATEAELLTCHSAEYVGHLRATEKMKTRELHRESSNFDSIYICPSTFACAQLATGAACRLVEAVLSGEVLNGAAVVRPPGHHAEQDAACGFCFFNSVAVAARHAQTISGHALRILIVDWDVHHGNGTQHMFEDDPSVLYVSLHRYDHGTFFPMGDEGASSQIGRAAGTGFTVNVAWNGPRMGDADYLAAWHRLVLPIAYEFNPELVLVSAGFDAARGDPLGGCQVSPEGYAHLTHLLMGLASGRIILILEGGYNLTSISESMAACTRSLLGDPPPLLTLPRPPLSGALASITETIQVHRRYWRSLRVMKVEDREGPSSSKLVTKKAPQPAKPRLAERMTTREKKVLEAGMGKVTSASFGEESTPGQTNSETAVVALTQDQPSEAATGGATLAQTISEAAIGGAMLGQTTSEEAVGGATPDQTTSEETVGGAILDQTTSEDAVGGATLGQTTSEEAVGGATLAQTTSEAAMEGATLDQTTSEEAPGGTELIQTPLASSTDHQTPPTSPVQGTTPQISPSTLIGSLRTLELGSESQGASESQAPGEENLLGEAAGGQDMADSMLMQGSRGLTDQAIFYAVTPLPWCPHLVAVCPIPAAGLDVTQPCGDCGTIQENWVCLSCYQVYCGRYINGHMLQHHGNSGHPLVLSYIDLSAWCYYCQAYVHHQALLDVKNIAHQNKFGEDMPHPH

Histone deacetylase 8 = molecular target: T2, Histone deacetylase 8 (Homo sapiens, UniProt Q9BY41); test: Inhibition of HDAC8 in human HeLa cells using BOC-K(Ac)-AMC as substrate measured after 30 mins by fluorescence based microtiter plate reader assay; format: cell-based
T2 sequence (Q9BY41 whole entry): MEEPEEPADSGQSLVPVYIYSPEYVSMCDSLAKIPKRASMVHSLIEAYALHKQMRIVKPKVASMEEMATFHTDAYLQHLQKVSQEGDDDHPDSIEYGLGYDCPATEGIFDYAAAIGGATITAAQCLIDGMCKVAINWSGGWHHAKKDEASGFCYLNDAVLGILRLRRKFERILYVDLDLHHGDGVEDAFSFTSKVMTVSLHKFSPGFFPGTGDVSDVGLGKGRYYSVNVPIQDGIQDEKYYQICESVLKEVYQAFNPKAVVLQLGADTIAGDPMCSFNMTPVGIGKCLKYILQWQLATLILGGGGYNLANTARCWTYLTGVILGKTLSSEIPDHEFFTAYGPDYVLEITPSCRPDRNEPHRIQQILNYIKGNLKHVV

Histone deacetylase 3 = Histone deacetylase 3 (Homo sapiens, UniProt O15379); test: Inhibition of HDAC3 in human HeLa cells using BOC-K(Ac)-AMC as substrate measured after 30 mins by fluorescence based microtiter plate reader assay; format: cell-based
H22 [3] = test: Antiproliferative activity against mouse H22 cells assessed as inhibition of cell growth measured after 72 hrs by MTT assay; format: functional, cell-based; conditions: H22, 72 h
HepG2 = test: Antiproliferative activity against human HepG2 cells assessed as inhibition of cell growth measured after 72 hrs by MTT assay; format: functional, cell-based; conditions: HepG2, 72 h
Histone deacetylase 2 = Histone deacetylase 2 (Homo sapiens, UniProt Q92769); test: Inhibition of HDAC2 in human HeLa cells using BOC-K(Ac)-AMC as substrate measured after 30 mins by fluorescence based microtiter plate reader assay; format: cell-based
HCT-116 = test: Antiproliferative activity against human HCT-116 cells assessed as inhibition of cell growth measured after 72 hrs by MTT assay; format: functional, cell-based; conditions: HCT-116, 72 h
Histone deacetylase 1 = Histone deacetylase 1 (Homo sapiens, UniProt Q13547); test: Inhibition of HDAC1 in human HeLa cells using BOC-K(Ac)-AMC as substrate measured after 30 mins by fluorescence based microtiter plate reader assay; format: cell-based
MCF7 = test: Antiproliferative activity against human MCF7 cells assessed as inhibition of cell growth measured after 72 hrs by MTT assay; format: functional, cell-based; conditions: MCF7, 72 h
H22 [4] = test: Antitumor activity against mouse H22 cells allografted in ICR mouse assessed as reduction in tumor weight at 25 mg/kg, ip administered qd measured after 21 days; format: functional; parameters: scale not given: the % may be the effect or the level left; conditions: time 21 day
H22 [5] = test: Antivascular activity against mouse H22 cells allografted in ICR mouse assessed as inhibition of blood vessel formation at 20 mg/kg, iv administered qd measured after 21 days by immunohistochemistry analysis; format: functional, organism-based; conditions: time 21.0 day
HUVEC = test: Antivascular activity against HUVEC cells assessed as inhibition of capillary-like tubule formation at 30 nM measured after 6 hrs by inverted microscopy; format: functional, cell-based; conditions: Homo sapiens
H22 [6] = test: Antitumor activity against mouse H22 cells allografted in ICR mouse assessed as reduction in tumor weight at 20 mg/kg, iv administered qd measured after 21 days; format: functional; parameters: scale not given: the % may be the effect or the level left; conditions: time 21 day
H22 [7] = test: Antivascular activity against mouse H22 cells allografted in ICR mouse assessed as reduction in tumor microvessel density by measuring CD31-positive cells at 20 mg/kg, iv administered qd measured after 21 days by immunohistochemistry analysis; format: functional, organism-based; conditions: time 21.0 day

Chain of Histone deacetylase 3 (O15379 whole entry): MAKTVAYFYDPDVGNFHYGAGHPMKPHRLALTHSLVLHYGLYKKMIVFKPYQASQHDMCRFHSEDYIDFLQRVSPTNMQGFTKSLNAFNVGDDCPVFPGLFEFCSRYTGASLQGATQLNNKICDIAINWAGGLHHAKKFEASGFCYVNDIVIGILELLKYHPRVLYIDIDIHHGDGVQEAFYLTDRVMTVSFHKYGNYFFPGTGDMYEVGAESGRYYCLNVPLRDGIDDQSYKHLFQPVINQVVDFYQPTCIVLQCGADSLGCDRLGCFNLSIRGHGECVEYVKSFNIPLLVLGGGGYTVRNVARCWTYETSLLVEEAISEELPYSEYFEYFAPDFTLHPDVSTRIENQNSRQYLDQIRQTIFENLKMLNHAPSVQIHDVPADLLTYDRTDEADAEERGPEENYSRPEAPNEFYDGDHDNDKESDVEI
Chain of Histone deacetylase 2 (Q92769 whole entry): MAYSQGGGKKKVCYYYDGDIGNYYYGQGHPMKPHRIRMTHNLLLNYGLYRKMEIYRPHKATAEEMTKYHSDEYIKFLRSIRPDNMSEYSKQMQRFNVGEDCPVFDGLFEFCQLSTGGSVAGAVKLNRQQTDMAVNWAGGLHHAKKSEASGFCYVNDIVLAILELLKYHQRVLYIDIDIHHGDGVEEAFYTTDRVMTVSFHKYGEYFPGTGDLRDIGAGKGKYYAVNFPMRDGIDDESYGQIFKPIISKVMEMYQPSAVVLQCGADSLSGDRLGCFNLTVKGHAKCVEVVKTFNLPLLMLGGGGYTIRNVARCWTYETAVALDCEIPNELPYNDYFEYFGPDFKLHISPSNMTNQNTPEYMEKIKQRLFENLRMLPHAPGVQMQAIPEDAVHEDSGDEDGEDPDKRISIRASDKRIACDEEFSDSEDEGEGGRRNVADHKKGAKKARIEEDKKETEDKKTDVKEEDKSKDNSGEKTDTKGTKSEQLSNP
Chain of Histone deacetylase 1 (Q13547 whole entry): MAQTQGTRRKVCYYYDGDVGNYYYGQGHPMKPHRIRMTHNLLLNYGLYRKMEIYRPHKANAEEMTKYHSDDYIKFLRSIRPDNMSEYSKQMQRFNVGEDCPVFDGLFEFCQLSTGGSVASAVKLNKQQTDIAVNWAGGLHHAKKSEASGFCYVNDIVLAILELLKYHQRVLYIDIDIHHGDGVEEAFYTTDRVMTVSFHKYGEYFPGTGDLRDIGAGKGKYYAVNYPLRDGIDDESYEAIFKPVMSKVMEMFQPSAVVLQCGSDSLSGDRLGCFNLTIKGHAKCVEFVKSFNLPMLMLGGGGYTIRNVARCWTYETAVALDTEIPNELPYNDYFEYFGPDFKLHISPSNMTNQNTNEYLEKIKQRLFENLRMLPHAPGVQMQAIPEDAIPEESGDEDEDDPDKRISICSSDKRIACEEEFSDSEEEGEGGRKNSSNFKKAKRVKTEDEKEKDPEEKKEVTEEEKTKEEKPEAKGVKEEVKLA

COc1cc(CNC(=O)c2cc(F)ccc2N2CCOCC2)ccc1CCC(=O)NO
IC50 (K562): > 2000 nM

COc1ccc(CNC(=O)c2cc(OCCCC(=O)NO)ccc2N2CCOCC2)cc1O
IC50 (K562): > 2000 nM

COc1ccc(CNC(=O)c2cc(F)ccc2N2CCOCC2)cc1OCCCCCCC(=O)NO
IC50 (K562): 1500 nM

COc1ccc(CNC(=O)c2cc(F)ccc2N2CCOCC2)cc1OCC(=O)NO
IC50 (MDA-MB-231): 104 nM | IC50 at 72 h [1]: 495 nM | IC50 [2]: 2420 nM | IC50 (Histone deacetylase 8): 16500 nM | IC50 (Histone deacetylase 3): 3250 nM | IC50 (H22 [3]): 95 nM | IC50 (HepG2): 114 nM | IC50 (Histone deacetylase 2): 6720 nM | IC50 (HCT-116): 105 nM | IC50 (Histone deacetylase 1): 8860 nM | IC50 (MCF7): 124 nM | IC50 (K562): 61 nM

COc1ccc(CNC(=O)c2cc(F)ccc2N2CCOCC2)cc1CCC(=O)NO
IC50 (K562): > 2000 nM

COc1ccc(CNC(=O)c2cc(OCCCCCCC(=O)NO)ccc2N2CCOCC2)cc1O
IC50 (K562): > 2000 nM

O=C(CCCCCCC(=O)Nc1ccccc1)NO [VORINOSTAT]
Activity (H22 [4]): 61%

O=C(/C=C/c1cccc(CNC(=O)c2cc(F)ccc2N2CCOCC2)c1)NO
IC50 (K562): 664 nM

COc1ccc(CNC(=O)c2cc(F)ccc2N2CCOCC2)c(CCC(=O)NO)c1
IC50 (K562): 1060 nM

COc1ccc(CNC(=O)c2cc(F)ccc2N2CCOCC2)cc1OCCCC(=O)NO
IC50 (K562): 1040 nM

COc1ccc(CNC(=O)c2cc(F)ccc2N2CCOCC2)cc1C(=O)NO
IC50 (K562): 1030 nM

COc1cc(/C=C/C(=O)NO)ccc1CNC(=O)c1cc(F)ccc1N1CCOCC1
IC50 (K562): 1660 nM

COc1ccc(CNC(=O)c2cc(C#CCCCCC(=O)NO)ccc2N2CCOCC2)cc1O
IC50 (K562): > 2000 nM

COc1cc(CCC(=O)NO)ccc1CNC(=O)c1cc(F)ccc1N1CCOCC1
IC50 (K562): > 2000 nM

COc1ccc(CNC(=O)c2cc(OCC(=O)NO)ccc2N2CCOCC2)cc1O
IC50 (K562): > 2000 nM

COc1ccc(CNC(=O)c2cc(F)ccc2N2CCOCC2)cc1C#CCCC(=O)NO
IC50 (K562): 354 nM

COc1ccc(CNC(=O)c2cc(F)ccc2N2CCOCC2)cc1O
IC50 (MDA-MB-231): 26 nM | Activity (H22 [5]): Active | Activity (HUVEC): Active | Activity (H22 [6]): 74% | IC50 at 72 h [1]: 126 nM | Activity (H22 [7]): Active | IC50 (H22 [3]): 29 nM | IC50 (HepG2): 27 nM | IC50 (HCT-116): 29 nM | IC50 (MCF7): 32 nM | IC50 (K562): 17 nM

COc1ccc(CNC(=O)c2cc(C(=O)Nc3ccccc3N)ccc2N2CCOCC2)cc1O
IC50 (MDA-MB-231): 101 nM | IC50 at 72 h [1]: 323 nM | IC50 [2]: 668 nM | IC50 (Histone deacetylase 8): 2240 nM | IC50 (Histone deacetylase 3): 530 nM | IC50 (H22 [3]): 96 nM | IC50 (HepG2): 97 nM | IC50 (Histone deacetylase 2): 28000 nM | IC50 (HCT-116): 77 nM | IC50 (Histone deacetylase 1): 16500 nM | IC50 (MCF7): 105 nM | IC50 (K562): 114 nM

COc1ccc(CNC(=O)c2cc(F)ccc2N2CCOCC2)cc1C(=O)Nc1ccccc1N
IC50 (K562): > 2000 nM

COc1ccc(CNC(=O)c2cc(/C=C/C(=O)NO)ccc2N2CCOCC2)cc1O
IC50 (K562): > 2000 nM

O=C(/C=C/c1cc(CNC(=O)c2cc(F)ccc2N2CCOCC2)ccc1O)NO
IC50 (MDA-MB-231): 642 nM | IC50 at 72 h [1]: 3260 nM | IC50 (H22 [3]): 733 nM | IC50 (HepG2): 700 nM | IC50 (HCT-116): 823 nM | IC50 (MCF7): 775 nM | IC50 (K562): 285 nM

COc1cc(CNC(=O)c2cc(F)ccc2N2CCOCC2)ccc1/C=C/C(=O)NO
IC50 (K562): 1970 nM

COc1ccc(CNC(=O)c2cc(C#CCCC(=O)NO)ccc2N2CCOCC2)cc1O
IC50 (K562): > 2000 nM

COc1ccc(CNC(=O)c2cc(F)ccc2N2CCOCC2)cc1C#CCCCCC(=O)NO
IC50 (K562): 921 nM

COc1ccc(CNC(=O)c2cc(C(=O)NO)ccc2N2CCOCC2)cc1O
IC50 (K562): > 2000 nM

COc1ccc(CNC(=O)c2cc(F)ccc2N2CCOCC2)c(/C=C/C(=O)NO)c1
IC50 (K562): 2000 nM
